# Where two headings read alike, the source gives them in different places.
# Tests used:
# Format in all cases: in vitro ADME
# [1] = biological target: T1, CYP2B6 (Homo sapiens, UniProt P20813); assay: CYP2B6 inhibition, bupropion hydroxylation in human liver microsomes; conditions: for Potential for Time-Dep. Inhibition: comparison with and without 30-minute pre-incubation; for inhibition at 5 min, 100 µM: human, pH 7.4, probe bupropion (hydroxylation)
# T1 construct: Pooled human liver microsomes (from sixteen individuals) were used as the source of enzymes; tissue XenoTech, LLC; host or cells: human liver microsomes, pool of sixteen donors
# T1 sequence (P20813 1-491): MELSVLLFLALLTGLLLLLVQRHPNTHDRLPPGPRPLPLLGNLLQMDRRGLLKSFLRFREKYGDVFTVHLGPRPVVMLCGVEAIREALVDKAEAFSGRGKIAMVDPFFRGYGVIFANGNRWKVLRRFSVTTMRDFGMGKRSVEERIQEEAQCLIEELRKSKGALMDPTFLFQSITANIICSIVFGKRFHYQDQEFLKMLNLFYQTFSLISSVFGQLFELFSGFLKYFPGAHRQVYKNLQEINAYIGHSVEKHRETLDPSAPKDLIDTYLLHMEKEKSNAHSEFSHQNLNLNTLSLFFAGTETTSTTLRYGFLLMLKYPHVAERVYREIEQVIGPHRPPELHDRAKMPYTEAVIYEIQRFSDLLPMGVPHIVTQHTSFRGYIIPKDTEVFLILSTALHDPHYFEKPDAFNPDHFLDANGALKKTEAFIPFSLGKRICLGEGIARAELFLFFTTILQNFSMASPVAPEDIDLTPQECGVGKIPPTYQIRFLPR
# Procedure: (§1) The basis for many of the following incubation conditions is described in the following references: Madan, et al., 2002,^(1) Huang, 2004,^(3) Ogilvie, et al., 2006,^(6) Pearce, et al., 1996,^(7) Tucker, et al., 2001,^(4) and Walsky and Obach, 2004.^(5) In general, incubations were conducted at approximately 37° C. in 400-μL incubation mixtures (target pH 7.4) containing high purity water, potassium phosphate buffer (50 mM), MgCl2 (3 mM), EDTA (1 mM), an NADPH-generating system [always the mixture of the following: NADP (1 mM), glucose-6-phosphate (5 mM), glucose-6-phosphate dehydrogenase (1 Unit/mL)], and marker substrate at the final concentrations indicated. Pooled human liver microsomes (from sixteen individuals) were used as the source of enzymes (Section 1.3.1.2). The concentrations of marker substrates were based on the Km and Vmax data that were determined previously (data not shown).
# (§2) Due to the possibility that boceprevir may bind to microsomal protein or lipids, an attempt was made to design these experiments such that, in as many cases as possible, the microsomal protein, incubation time, and phosphate buffer concentration were 0.1 mg/mL, 5 minutes and 50 mM, respectively, for assays performed with human liver microsomes (Table 1). […] Since it is not imperative that the concentration of marker substrates be exactly equal to Km, the marker substrate concentrations were rounded up or down, as applicable, to simplify the experimental design (data not shown). […] Thus, the final incubation concentration of phenacetin was 60 μM (Table 1).
# (§3) The ability of boceprevir to inhibit the CYP enzymes listed in Section 1.2.1 was investigated with a pool of sixteen individual human liver microsomal samples at the concentrations indicated in Table 1. Aliquots of the stock and/or working solutions of boceprevir were manually added to buffer mixtures containing the components described in Section 1.3.21. Incubation mixtures were prepared in bulk to obviate the need for directly pipetting very small volumes (i.e., 1 μL or less). Incubations containing no boceprevir (0 μM) contained the vehicle used to dissolve boceprevir (i.e., 1% methanol).
# The Tecan liquid handling system conducted all remaining incubation steps, with the exception of the centrifugation. Aliquots of the buffer mixtures were then automatically added to 96-well plates at the appropriate locations in duplicate. Aliquots of a substrate working solution were added to the 96-well plates, prior to initiating reactions, to give the final concentrations indicated in Table 1. Reactions were initiated with the addition of an aliquot of an NADPH-generating system. Reactions were automatically terminated at approximately 5 minutes, by the addition of the appropriate internal standard (Table 5) and stop reagent; acetonitrile. Precipitated protein was removed by centrifugation (920 g for 10 minutes at 10° C.). Standards and quality control samples were similarly prepared with the addition of authentic metabolite standards.
# To examine its ability to act as a time-dependent inhibitor, boceprevir (at the same concentrations used to evaluate direct inhibition) was pre-incubated at 37±1° C., in duplicate, with human liver microsomes and an NADPH-generating system for approximately 30 minutes. This pre-incubation allowed for the generation of intermediates that could inhibit human CYP enzymes. The pre-incubations were initiated with the addition of an aliquot of an NADPH-generating system. […] Reactions were automatically terminated, at approximately 5 minutes, by the addition of the appropriate internal standard (Table 5) and stop reagent; acetonitrile. Precipitated protein was removed by centrifugation (920 g for 10 minutes at 10° C.). Incubations containing no boceprevir (0 μM) and incubations that contained boceprevir but were not pre-incubated, served as negative controls.
# [2] = biological target: T2, CYP2E1 (Homo sapiens, UniProt P05181); assay: CYP2E1 inhibition, chlorzoxazone 6-hydroxylation in human liver microsomes; conditions: for Potential for Time-Dep. Inhibition: comparison with and without 30-minute pre-incubation
# T2 construct: Pooled human liver microsomes (from sixteen individuals) were used as the source of enzymes; tissue XenoTech, LLC; host or cells: human liver microsomes, pool of sixteen donors
# Procedure: as §1, §2, §3
# The Tecan liquid handling system conducted all remaining incubation steps, with the exception of the centrifugation. Aliquots of the buffer mixtures were then automatically added to 96-well plates at the appropriate locations in duplicate. Aliquots of a substrate working solution were added to the 96-well plates, prior to initiating reactions, to give the final concentrations indicated in Table 1. Reactions were initiated with the addition of an aliquot of an NADPH-generating system. […]
# [3] = test system: CYP3A4/5; assay: Metabolite inhibitory complex (MIC) formation, human liver microsomes with high CYP3A4/5 activity; conditions: 3 μM, scans 380-520 nm for 15 minutes
# Procedure: In an attempt to determine the mechanism in which boceprevir inactivated CYP3A4/5, an experiment was conducted to determine if boceprevir formed a spectrophotometrically detectable metabolite inhibitory complex with cytochrome P450 (i.e., peaks at approximately 452 nm).
# In this experiment (summarized in Table 4), an individual human liver microsomal sample containing high levels of CYP3A4/5 activity (final protein concentration of 1 mg/mL, 1.7 nmol P450/mg protein) was added to the sample and reference cuvettes in a buffer mixture consisting of potassium phosphate (50 mM), and MgCl2 (3 mM) for a final volume of 980 μL. Baseline scans from 380 to 520 nm were recorded on a Varian Cary 100 BIO UV/Vis dual beam spectrophotometer. Boceprevir was then added to the sample cuvette in 10 μL of methanol for a final incubation concentration of 3 μM. A corresponding volume of the solvent (10 μL of methanol), used to dissolve boceprevir, was added to the reference. The reactions were initiated with 10 μL of β-NADPH added to both cuvettes to give a final volume of 1 mL. Continuous scans were conducted every minute for 15 minutes after the addition of β-NADPH. All scans were conducted at approximately 37° C. […]
# [4] = direct inhibition, zero-minute pre-incubation, pooled human liver microsomes
# [5] = time-dependent inhibition, 30-minute pre-incubation
# T2 sequence (P05181 whole entry): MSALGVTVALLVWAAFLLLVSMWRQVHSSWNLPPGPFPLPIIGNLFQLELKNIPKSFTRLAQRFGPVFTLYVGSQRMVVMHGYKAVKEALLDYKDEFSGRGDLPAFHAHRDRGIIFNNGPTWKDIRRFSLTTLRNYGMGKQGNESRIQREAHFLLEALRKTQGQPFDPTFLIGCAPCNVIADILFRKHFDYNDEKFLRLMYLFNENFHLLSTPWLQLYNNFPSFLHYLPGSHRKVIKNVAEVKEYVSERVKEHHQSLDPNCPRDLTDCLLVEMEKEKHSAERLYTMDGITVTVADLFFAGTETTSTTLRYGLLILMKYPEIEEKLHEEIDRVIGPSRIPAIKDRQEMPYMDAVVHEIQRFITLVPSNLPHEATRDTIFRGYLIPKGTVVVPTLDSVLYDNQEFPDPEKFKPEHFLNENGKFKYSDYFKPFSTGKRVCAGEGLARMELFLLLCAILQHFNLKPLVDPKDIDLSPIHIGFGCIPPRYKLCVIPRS
structure (smiles),measurement,setting,value
"CC(C)(C)NC(=O)NC(C(=O)N1CC2C([C@H]1C(=O)NC(CC1CCC1)C(=O)C(N)=O)C2(C)C)C(C)(C)C (stereo partly drawn) [Boceprevir, (1R,2S,5S)—N-[(2Ξ)-4-amino-1-cyclobutyl-3,4-dioxobutan-2-yl]-3-{(2S)-2-[(tert-butylcarbamoyl)amino]-3,3-dimethylbutanoyl}-6,6-dimethyl-3-azabicyclo[3.1.0]hexane-2-carboxamide]",Potential for Time-Dep. Inhibition,[1],little or no
same,Potential for Time-Dep. Inhibition,[1]; listed as boceprevir,no discernable time-dependent inhibition
same,IC50,[1]; [4],> 100 µM
same,"inhibition at 5 min, 100 µM","[1]; pooled human liver microsomes, direct inhibition, zero-minute pre-incubation, read-out: Max. Inhib. at 100 μM",2.3%
same,"inhibition at 5 min, 100 µM","[1]; pooled human liver microsomes, time-dependent inhibition, 30-minute pre-incubation, read-out: Maximum Inhibition at 100 μM",6.9%
same,IC50,[1]; [5],> 100 µM
same,Potential for Time-Dep. Inhibition,[2],little or no
same,Potential for Time-Dep. Inhibition,[2]; listed as boceprevir,no discernable time-dependent inhibition
same,IC50,[2]; [4],> 100 µM
same,IC50,[2]; [5],> 100 µM
same,Formation of a spectrally visible metabolite inhibitory complex (MIC),[3],did not appear to form a spectrally visible MIC

# — US20140162942A1, “INHIBITION OF CYP3A DRUG METABOLISM” (priority 2010, published 2014)
